Molecules are shown by their SMILES.

Experiment [1] deals with T1, spermine oxidase (mSMO) (Mus musculus, UniProt Q99K82).
T1 construct: gene Smox; Murine recombinant SMO
In words: enzyme inhibition of recombinant mSMO with Spm as substrate, Dixon plot. In kind it is biochemical.

Experiment [2] has as its target T1, spermine oxidase (mSMO). The experiment can be described thus: enzyme inhibition of mSMO, Ki in Table […] (reference inhibitor; assay not detailed in Methods). In kind it is biochemical. The settings on record: cited from earlier work.

T1 sequence (Q99K82 whole entry): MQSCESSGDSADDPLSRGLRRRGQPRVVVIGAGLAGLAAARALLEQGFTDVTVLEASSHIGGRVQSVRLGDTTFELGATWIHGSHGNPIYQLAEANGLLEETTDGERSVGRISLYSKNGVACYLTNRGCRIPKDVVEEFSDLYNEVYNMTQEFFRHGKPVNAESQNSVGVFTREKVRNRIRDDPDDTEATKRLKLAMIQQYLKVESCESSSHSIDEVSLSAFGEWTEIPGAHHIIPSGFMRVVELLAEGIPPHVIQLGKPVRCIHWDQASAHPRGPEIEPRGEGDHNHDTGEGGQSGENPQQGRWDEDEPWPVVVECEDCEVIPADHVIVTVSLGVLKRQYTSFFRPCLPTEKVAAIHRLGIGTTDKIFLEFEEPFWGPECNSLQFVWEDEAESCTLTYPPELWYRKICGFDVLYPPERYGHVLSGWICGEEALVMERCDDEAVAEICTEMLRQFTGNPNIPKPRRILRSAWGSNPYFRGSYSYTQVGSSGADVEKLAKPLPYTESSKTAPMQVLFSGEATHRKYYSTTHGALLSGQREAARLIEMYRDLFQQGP

For `CCNCCCNCCCNCCCNCC` [BENSpm], in experiment [1], the Ki – broadly, a measure of affinity in units of concentration, obtained from inhibition or displacement – came to 380 µM.
With `CCNCCCNCCCNCCCNCC1CC1` [CPENSpm, N^1-ethyl-N^11-(cyclopropyl)-methyl-4,8-diazaundecane], the Ki in experiment [1] amounted to 85 µM.
Turning to `C=C=CCNCCCCNCC=C=C` [MDL72527, N^1, N^4-bis(2,3-butadienyl)-1,4butanediamine], in experiment [2], the Ki is 63 µM.

Values taken from paper PMC3027604, “Spermine oxidase (SMO) activity in breast tumor tissues and biochemical analysis of the anticancer spermine analogues BENSpm and CPENSpm” (2010).
